{"source": "paper PMC2765658", "about": "(Chemical communications (Cambridge, England), 2009)", "assay": "Thermal melting followed by CD ellipticity", "format": "physicochemical", "settings": "CD ellipticity followed over 20 - 85 °C; 100 μM peptide in 20% TFE/H2O", "note": "Square brackets hold non-standard residues; d marks the D form. Peptide text beside a SMILES is read from it. Aib = CC(C)(N)C(=O)O", "data": [{"compound": "CC(=O)NCCCC[C@H](NC(=O)[C@@H](NC(C)=O)C(C)C)C(=O)N[C@@H](CC(C)C)C(=O)NC(C)(C)C(=O)N[C@H](C(=O)N[C@@H](CCCCNC(C)=O)C(=O)N[C@@H](CC(C)C)C(N)=O)C(C)C", "note": "[compound 17, Ac-Val-Lys(Ac)-Leu-Aib-Val-Lys(Ac)-Leu-NH2] (Ac-VK(Ac)L[Aib]VK(Ac)L-NH2)", "values": [{"measurement": "thermal melting point (Tm)", "result": 48, "unit": "°C"}]}]}
